Read-outs that look alike come from different tables or passages of the source.
How the values were obtained:
[1] = system: murine multidrug resistant leukemia cells (P388/Adr); experiment: Cell growth inhibition by direct cell counting, P388/Adr; format: cell-based; conditions: read-out: IG50 P388/Adr
Experimental: (§1) Cells were taken out carefully from liquid nitrogen (Frozen pipes), and the cell freezing medium was thawed rapidly in water bath at 37° C. in order to rapidly pass through the temperature range of 0 to 5° C. within which the cell is easily damaged. Cell suspension was sucked with pipette gun and put it into centrifugal tubes under sterile condition, then was centrifuged for 3 min at 1300 r/min. The supernatant was gently discarded, and then added with a fresh medium to pipette and mix the cells. Finally, the cells were transferred into culture flasks, and cultured in a carbon dioxide incubator. The medium was changed once after 24 h.
(§2) Human leukemia cells (HL-60) were cultured in RPMI1640 medium containing 10% (v/v) fetal bovine serum, 100 U/mL penicillin and 100 μg/mL streptomycin. Murine leukemia cells (P388) and murine multidrug resistant leukemia cells (P388/Adr) were cultured in Eagle's minimum essential medium (MEM) containing 10% (v/v) fetal bovine serum, 100 U/mL penicillin and 100 μg/mL streptomycin. All of the above cell lines were incubated in 37° C. incubator with 5% carbon dioxide saturated humidity.
(§3) After resuscitation, the cells were passed for 2-3 generations till they became stable, then they were used for the experiments. Each passage was based on the standard that all cells were spread over the bottoms of culture flasks.
(§4) Cell suspensions of a certain density (5×10^4 cells/mL) were plated at 24-well plate, 2 mL/well. Different concentration of drugs were added thereto, and incubated or some time. Then, cells were counted under the microscope. The ratio of total number of cells in test group to the total number of cells in control group is the cell growth inhibition rate under the concentration condition. The total number of cells in cell suspension, which were treated by drugs, could be counted by blood count board. Inhibition rate was calculated using the formula: […]
(§5) According to cell growth inhibition rate of each concentration of drugs, half inhibitory concentration could be calculated. (IG50 is the drug concentration, when cell growth inhibition rate was 50%.)
(§6) 6) The Results of the Growth Inhibitory Activity of the Compounds on Murine Leukemia Cells (P388) and Murine Multidrug Resistant Leukemia Cells (P388/Adr) were Listed in Table 2.

[2] = system: Murine leukemia cells (P388); experiment: Cell growth inhibition by direct cell counting, P388; format: cell-based; conditions: read-out: IG50 P388
Experimental: as §1, §2, §3, §4, §5, §6

[3] = system: Human leukemia cells (HL-60); experiment: Cell growth inhibition by direct cell counting, HL-60; format: cell-based; conditions: HL-60 cells, drug concentration at 50% cell growth inhibition, read-out: IG50 (the source's name)
Experimental: as §1, §2, §3, §4, §5

[4] = system: Human Breast Cancer Cells (MCF-7); experiment: Cell growth inhibition by direct cell counting, MCF-7; format: cell-based; conditions: Homo sapiens, MCF7; MCF-7 cells; read-out: IG50 MCF-7
Experimental: as §1, §3, §4, §5
(§7) 7) The Results of the Growth Inhibitory Activity of the Compounds on Human Breast Cancer Cells (MCF-7) and Human Multidrug Resistant Breast Cancer Cells (MCF-7/Adr) were Listed in Table 3.

[5] = system: Human Multidrug Resistant Breast Cancer Cells (MCF-7/Adr); experiment: Cell growth inhibition by direct cell counting, MCF-7/Adr; format: cell-based; conditions: Homo sapiens, NCI/ADR-RES; MCF-7/Adr multidrug resistant cells; read-out: IG50 MCF-7/Adr
Experimental: as §1, §3, §4, §5, §7

## CC1CCC2C(C)[C@@H](Oc3ccc(CN4CCN(c5ccccc5)CC4)cc3)OC3OC4(C)CCC1C32OO4 (stereo partly shown) [Example 10]
[1]
  IC50: 88 nM
[2]
  IC50: 70 nM
[3]
  IC50: 33 nM

## C[C@H]1[C@@H](Oc2ccc(CN3CCN(C)CC3)cc2)O[C@@H]2O[C@@]3(C)CC[C@H]4[C@H](C)CC[C@@H]1[C@@]24OO3 [Example 7, (10S)—O-[4-((4-methylpiperazin-1-yl)methyl)phenyl]-dihydroartemisinin]
[3]
  IC50: 120 nM

## CCN1CCN(Cc2ccc(O[C@H]3O[C@@H]4O[C@@]5(C)CC[C@H]6[C@H](C)CC[C@@H]([C@H]3C)[C@@]46OO5)cc2)CC1 [Example 8, (10S)—O-[4-((4-ethylpiperazin-1-yl)methyl)phenyl]-dihydroartemisinin]
[3]
  IC50: 83 nM

## C[C@H]1[C@@H](Oc2ccc(CN3CCCCC3)cc2)O[C@@H]2O[C@]3(C)CC[C@H]4[C@H](C)CC[C@@H]1[C@@]24OO3 [Example 5, (10S)—O-[4-((piperidin-1-yl)methyl)phenyl]-dihydroartemisinin]
[1]; Mus musculus
  IC50: 804 nM
[2]; Mus musculus
  IC50: 880 nM
[3]; Homo sapiens
  IC50: 228 nM

## CC1CCC2C(C)[C@@H](Oc3ccc(CN4CCC(N5CCCCC5)CC4)cc3)OC3OC4(C)CCC1C32OO4 (stereo partly drawn) [Example 6, (10S)—O-[4-[(4-(piperidinyl)piperidin-1-yl)methyl]phenyl]-dihydroartemisinin]
[3]
  IC50: 79 nM

## CCN1CCN(C(=O)/C=C/c2ccc(O[C@H]3OC4OC5(C)CCC6C(C)CCC(C3C)C46OO5)cc2)CC1 (stereo partly drawn) [Example 25, (10S)—O-{4-[3-oxo-3-(4-ethylpiperazin-1-yl)-1-(E)-propen-1-yl]phenyl}-dihydroartemisinin]
[1]
  IC50: 223 nM
[2]
  IC50: 152 nM

## CC1CCC2C(C)[C@@H](Oc3ccc(CN4CCN(CC=Cc5ccccc5)CC4)cc3)OC3OC4(C)CCC1C32OO4 (stereo partly drawn) [Example 17, 10-O-[4-[(4-cinnamylpiperazin-1-yl)methyl]phenyl]-(10S)-dihydroartemisinin]
[3]
  IC50: 59 nM

## CC1CCC2C(C)C(Oc3ccc(CN4CCN(Cc5ccccc5)CC4)cc3)OC3OC4(C)CCC1C32OO4 [Example 16, 10-O-[4-[(4-benzylpiperazin-1-yl)methyl]phenyl]-(10S)-dihydroartemisinin]
[3]
  IC50: 105 nM

## C[C@H]1[C@@H](Oc2ccc(CC(=O)N3CCCC3)cc2)O[C@@H]2O[C@]3(C)CC[C@@H]4[C@H](C)CC[C@@H]1[C@@]24OO3 [Example 33, (10S)—O-{4-[2-(pyrrolidin-1-yl)-2-oxoethyl]phenyl}-dihydroartemisinin]
other
  melting point: 73 to 74 °C
[4]
  IC50: 3230 nM
[5]
  IC50: 122 nM

## CC1CCC2C(C)[C@@H](Oc3ccc(/C=C/C(=O)N4CCN(c5ccccc5)CC4)cc3)OC3OC4(C)CCC1C32OO4 (stereo partly drawn) [Example 26, (10S)—O-{4-[3-oxo-3-(4-phenylpiperazin-1-yl)-1-(E)-propen-1-yl]phenyl}-dihydroartemisinin]
[1]
  IC50: 153 nM
[2]
  IC50: 145 nM

## C[C@H]1[C@@H](Oc2ccc(/C=C/C(=O)Oc3ccc(/C=C/C(=O)N4CCCCC4)cc3)cc2)O[C@@H]2O[C@]3(C)CC[C@H]4[C@H](C)CC[C@@H]1[C@@]24OO3 [Example 31, 4-[(10S)-dihydroartemisinin-10-O-yl]phenyl-acrylic acid-4-[3-oxo-3-(piperidin-1-yl)-1-(E)-propen-1-yl]phenyl ester]
other
  melting point: 160 to 163 °C
[4]
  IC50: 63 nM

## C[C@H]1[C@@H](Oc2ccc(Cn3ccnc3)cc2)O[C@@H]2O[C@]3(C)CC[C@H]4[C@H](C)CC[C@@H]1[C@@]24OO3 [Example 2, (10S)—O-[4-((imidazol-1-yl)methyl)phenyl]-dihydroartemisinin]
other
  melting point: 65 to 67 °C
[4]
  IC50: 211 nM
[5]
  IC50: 631 nM

## CC1CCC2C(C)[C@@H](Oc3ccc(CN4CCN(C(C)C)CC4)cc3)OC3OC4(C)CCC1C32OO4 (stereo partly drawn) [Example 9, (10S)—O-[4-((4-isopropylpiperazin-1-yl)methyl)phenyl]-dihydroartemisinin]
[3]
  IC50: 71 nM

## C[C@H]1[C@@H](Oc2ccc(/C=C/C(=O)N3CCN(C)CC3)cc2)O[C@@H]2O[C@@]3(C)CC[C@H]4[C@H](C)CC[C@@H]1[C@@]24OO3 [Example 24]
[1]
  IC50: 918 nM
[2]
  IC50: 299 nM

## C[C@H]1[C@@H](Oc2ccc(CC(=O)Nc3ccccc3)cc2)O[C@@H]2O[C@]3(C)CC[C@@H]4[C@H](C)CC[C@@H]1[C@@]24OO3 [Example 47, (10S)—O-[4-(2-phenylamino-2-oxoethyl)phenyl]-dihydroartemisinin]
other
  melting point: 172 to 173 °C
[4]
  IC50: 1550 nM
[5]
  IC50: 9.66 nM

## C[C@H]1[C@@H](Oc2ccc(/C=C/C(=O)N3CCCC3)cc2)O[C@@H]2O[C@]3(C)CC[C@H]4[C@H](C)CC[C@@H]1[C@@]24OO3 [Example 20, (10S)—O-{4-[3-oxo-3-(pyrrolidin-1-yl)-1-(E)-propen-1-yl]phenyl}-dihydroartemisinin]
other
  melting point: 165 to 167 °C
[4]
  IC50: 123 nM

Source: patent publication US9718837B2, “Nitrogen-containing heterocyclic ring substituted dihydroartemisinin derivatives and use thereof” (Shenyang Pharmaceutical University, priority 2013, dated 2017)
